Patent EP0080822A1, “Anti-hypertensive prolinol-based peptides” (BEECHAM GROUP PLC, priority 1981, dated 1983)

How the values were obtained:
[1] = biological target: T1, angiotensin converting enzyme (Rattus norvegicus, UniProt P47820); experiment: In vivo test for inhibition of angiotensin converting enzyme: pressor responses to angiotensin I and II in anaesthetised rats
T1 construct: were each tested in anaesthetised rats; from tissue; host or cells: whole animal (anaesthetised rat)
T1 sequence (P47820 36-1313): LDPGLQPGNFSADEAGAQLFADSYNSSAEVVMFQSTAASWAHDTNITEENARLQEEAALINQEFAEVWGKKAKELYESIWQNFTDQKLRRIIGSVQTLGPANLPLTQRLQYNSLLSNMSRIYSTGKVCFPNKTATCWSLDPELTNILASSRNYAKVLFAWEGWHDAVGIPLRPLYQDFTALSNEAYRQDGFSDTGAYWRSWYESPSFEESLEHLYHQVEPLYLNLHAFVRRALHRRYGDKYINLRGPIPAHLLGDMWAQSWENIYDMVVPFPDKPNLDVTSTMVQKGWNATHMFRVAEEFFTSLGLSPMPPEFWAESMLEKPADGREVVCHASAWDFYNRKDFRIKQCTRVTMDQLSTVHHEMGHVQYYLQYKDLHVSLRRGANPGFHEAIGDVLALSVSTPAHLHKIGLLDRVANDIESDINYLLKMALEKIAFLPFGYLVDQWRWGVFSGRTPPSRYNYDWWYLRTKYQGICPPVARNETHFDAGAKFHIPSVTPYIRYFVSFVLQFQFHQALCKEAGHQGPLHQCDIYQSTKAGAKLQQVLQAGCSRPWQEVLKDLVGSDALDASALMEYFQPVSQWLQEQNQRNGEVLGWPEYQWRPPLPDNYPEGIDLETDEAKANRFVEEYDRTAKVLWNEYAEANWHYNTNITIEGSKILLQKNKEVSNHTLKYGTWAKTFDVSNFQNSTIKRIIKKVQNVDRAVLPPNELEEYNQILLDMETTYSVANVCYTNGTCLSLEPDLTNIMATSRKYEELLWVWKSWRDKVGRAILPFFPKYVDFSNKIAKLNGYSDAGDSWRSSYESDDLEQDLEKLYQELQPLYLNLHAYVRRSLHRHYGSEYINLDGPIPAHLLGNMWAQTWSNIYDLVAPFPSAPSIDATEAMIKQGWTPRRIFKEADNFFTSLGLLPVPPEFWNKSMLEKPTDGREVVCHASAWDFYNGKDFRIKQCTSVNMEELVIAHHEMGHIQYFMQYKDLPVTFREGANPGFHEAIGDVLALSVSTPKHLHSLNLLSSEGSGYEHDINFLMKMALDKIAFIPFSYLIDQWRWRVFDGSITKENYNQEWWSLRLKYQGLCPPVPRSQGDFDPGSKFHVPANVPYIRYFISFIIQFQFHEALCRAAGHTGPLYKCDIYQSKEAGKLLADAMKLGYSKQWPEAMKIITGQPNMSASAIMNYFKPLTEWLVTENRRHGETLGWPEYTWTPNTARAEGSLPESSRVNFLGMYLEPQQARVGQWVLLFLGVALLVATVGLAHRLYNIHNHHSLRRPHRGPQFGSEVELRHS
Protocol: 2. In vivo test for inhibition of angiotensin converting enzyme.
The compounds of examples 1,2,4 & 5 were each tested in anaesthetised rats for their ability to reduce the pressor responses to angiotensin I, but not those to angiotensin II. The dose of angiotensin I was 300 n.g/kg (i.v) and the dose of angiotensin II was 100 ng/kg (i.v).
The results given are the mean of those obtained from the given number of rats.
'I' is the increase in diastolic blood pressure (mm Hg) to angiotensin I (control reponse).
'%R' is the percentage reduction in control angiotensin I response after the intervals (min) from dosage.

[2] = test system: Spontaneously hypertensive rats; experiment: Antihypertensive activity in spontaneously hypertensive rats (tail cuff method); format: in vivo
Protocol: 3. Antihypertensive Activity
Each determination of blood pressure was the mean of at least 6 readings. Spontaneously hypertensive rats (ages 12-18 weeks) with systolic blood pressures 170 mmH:g were considered hypertensive.
The initial blood pressure and heart rats were determined and recorded together with the % changes occuring at intervals thereafter: […]

[3] = biological target: T2, rat lung angiotensin converting enzyme preparation (Rattus norvegicus, UniProt P47820); experiment: In vitro test for inhibition of angiotensin converting enzyme; format: biochemical; conditions: mean of 3 experiments; read-out: 50% inhibitior. (IC50) of rat lung angiotensin converting enzyme preparation
T2 construct: rat lung angiotensin converting enzyme preparation; from tissue; host or cells: rat lung
T2 sequence (P47820 36-1313): T1 sequence (P47820 36-1313)
From the text: 1. In vitro test for inhibition of angiotensin converting enzyme

[4] = 0.10 mg/kg i.v, 5 min from dosage
[5] = 0.10 mg/kg i.v, 10 min from dosage
[6] = 0.10 mg/kg i.v, 15 min from dosage
[7] = 0.10 mg/kg i.v, 25 min from dosage
[8] = 0.10 mg/kg i.v, 30 min from dosage
[9] = 0.10 mg/kg i.v, 40 min from dosage
[10] = 0.10 mg/kg i.v, 50 min from dosage
[11] = 30 mg/kg p.o., 1 hour post dose
[12] = 30 mg/kg p.o., 2 hours post dose
[13] = 30 mg/kg p.o., 4 hours post dose
[14] = 30 mg/kg p.o., 6 hours post dose
[15] = 30 mg/kg p.o., 24 hours post dose
[16] = 0.10 mg/kg i.v, 45 min from dosage
[17] = 0.03 mg/kg i.v, 5 min from dosage
[18] = 0.03 mg/kg i.v, 10 min from dosage
[19] = 0.03 mg/kg i.v, 15 min from dosage
[20] = 0.30 mg/kg i.v, 5 min from dosage
[21] = 0.30 mg/kg i.v, 10 min from dosage
[22] = 0.30 mg/kg i.v, 15 min from dosage
[23] = 0.30 mg/kg i.v, 25 min from dosage
[24] = 0.30 mg/kg i.v, 30 min from dosage
[25] = 0.30 mg/kg i.v, 40 min from dosage
[26] = 0.30 mg/kg i.v, 45 min from dosage
[27] = 0.30 mg/kg i.v, 50 min from dosage
[28] = 10 mg/kg p.o., 1 hour post dose
[29] = 10 mg/kg p.o., 4 hours post dose
[30] = 10 mg/kg p.o., 6 hours post dose
[31] = 10 mg/kg p.o., 24 hours post dose

| Substance | %R percentage reduction in control angiotensin I response [1, 4] [%] | %R percentage reduction in control angiotensin I response [1, 5] [%] | %R percentage reduction in control angiotensin I response [1, 6] [%] | %R percentage reduction in control angiotensin I response [1, 7] [%] | %R percentage reduction in control angiotensin I response [1, 8] [%] | %R percentage reduction in control angiotensin I response [1, 9] [%] | %R percentage reduction in control angiotensin I response [1, 10] [%] | %R percentage reduction in control angiotensin I response [1, 16] [%] | %R percentage reduction in control angiotensin I response [1, 17] [%] | %R percentage reduction in control angiotensin I response [1, 18] [%] | %R percentage reduction in control angiotensin I response [1, 19] [%] | %R percentage reduction in control angiotensin I response [1, 20] [%] | %R percentage reduction in control angiotensin I response [1, 21] [%] | %R percentage reduction in control angiotensin I response [1, 22] [%] | %R percentage reduction in control angiotensin I response [1, 23] [%] | %R percentage reduction in control angiotensin I response [1, 24] [%] | %R percentage reduction in control angiotensin I response [1, 25] [%] | %R percentage reduction in control angiotensin I response [1, 26] [%] | %R percentage reduction in control angiotensin I response [1, 27] [%] | other results |
| --- | --- | --- | --- | --- | --- | --- | --- | --- | --- | --- | --- | --- | --- | --- | --- | --- | --- | --- | --- | --- |
| N-[4-(2,3-dihydro-2-benzofuranyl)-l-(ethoxycar-α bonyl)-butyl]-(S)-alanyl-4αbenzyloxy-(S)-proline [Example 5] | 61 | 58 | 52 | 47 | 44 | 39 | 18 |  |  |  |  |  |  |  |  |  |  |  |  | % change in heart rate [2, 11]: -2 ± 2%; % change in systolic blood pressure [2, 11]: -10± 3%; % change in heart rate [2, 12]: 0 ± 4%; % change in systolic blood pressure [2, 12]: -7± 2%; % change in heart rate [2, 13]: +5 ± 3%; % change in systolic blood pressure [2, 13]: -23± 1%; % change in heart rate [2, 14]: 0 ± 3%; % change in systolic blood pressure [2, 14]: -17± 1%; % change in heart rate [2, 15]: +9 ± 5%; % change in systolic blood pressure [2, 15]: +1± 3% |
| N-[2-(2,3-dihydro-2-benzofuranyl)-l-(ethoxycarbonyl) -ethyl)-(S)-alanyl -4α-benzyloxy-(S)-nroline [Example 4] | 34 | 29 | 25 | 15 | 14 | 16 |  | 14 |  |  |  |  |  |  |  |  |  |  |  |  |
| N-(1-Carboxypropyl)-(S)-alanyl-4α-benzyloxy-(S)-proline [Example 1] | 60 | 64 | 57 | 41 | 38 | 36 | 24 | 32 | 39 | 29 | 6 | 86 | 80 | 77 | 76 | 77 | 73 | 72 | 74 | IC50 [3]: 3.3 nM |
| N-(1-carbethoxy-3-phenylpropyl)-(S)-alanyl-4α-benzyloxy-(S)-proline [Example 2] | 67 | 66 | 61 | 53 | 42 | 47 | 29 | 39 | 23 | 25 | 19 | 82 | 81 | 80 | 69 | 67 | 69 | 65 | 60 | %R percentage reduction in control angiotensin I response ([1]; 0.03 mg/kg i.v, 25 min from dosage): 12%; % change in heart rate [2, 28]: -7 ± 3%; % change in systolic blood pressure [2, 28]: -5± 3%; % change in systolic blood pressure ([2]; 10 mg/kg p.o., 2 hours post dose): -10± 3%; % change in heart rate [2, 29]: -5 ± 4%; % change in systolic blood pressure [2, 29]: -22± 3%; % change in heart rate [2, 30]: 1 ± 4%; % change in systolic blood pressure [2, 30]: -22± 4%; % change in heart rate [2, 31]: -4 ± 3%; % change in systolic blood pressure [2, 31]: -7± 4% |
